Results on ten compounds are retold here after PubChem BioAssay (NCI).

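Following 48 hours of exposure in 96-well plates, responses at five concentrations were used to interpolate endpoints linearly. TGI: concentration producing complete growth inhibition.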

Holding throughout (assay): growth of human tumour cells (NCI), 48 h
Assay [1] deals with SK-MEL-2 melanoma.
The subject of assay [2] is LOX IMVI melanoma.
Assay [3] concerns EKVX NSCLC.
In assay [4] the test system is SK-MEL-28 melanoma.
Assay [5] relates to UACC-257 melanoma.
Assay [6] has as its system NCI-H23 lung.
Assay [7] has as its system SK-MEL-5 melanoma.
Assay [8] has as its system A549 NSCLC.
In assay [9] the test system is HCT-116 colon.
Assay [10] deals with COLO 205 colon.
The subject of assay [11] is HL-60(TB) leukemia.
The subject of assay [12] is OVCAR-4 ovarian.
Assay [13] has as its system T-47D breast.
Assay [14] has as its system MDA-MB-231 breast.
For assay [15], the system named is MCF7 breast.
In assay [16] the test system is BT-549 breast.

Consider `CC#C[I+]c1ccccc1`, for which the TGI in assay [1] is greater than 100 µM; in assay [2] it was 28.2 µM; in assay [3] it was 36.7 µM; in assay [4], 50.4 µM; in assay [5], 51.7 µM; in assay [6], 39.7 µM. Besides, the TGI in assay [7] was 48.5 µM; in assay [8], greater than 100 µM; in assay [9] it was 35.3 µM; in [10], 26 µM; in assay [11], 33.8 µM; in [12], 46.3 µM.

Regarding `Cc1[nH]c(=O)nc(NCCNCCO)c1C(=O)Nc1c2ccccc2nc2ccccc12`, the TGI in assay [1], in [2], in assay [3], in [4], in [13] and in assay [5] was greater than 100 µM throughout. Further, the TGI in assay [6], in assay [7], in [8], in [9], in assay [14] and in [15] was greater than 100 µM throughout. Besides, the TGI in [10], in [11] and in assay [12] was greater than 100 µM throughout.

With `COc1nc2sc3c(c2c(=O)n1CCCSSCCCn1c(OC)nc2sc4c(c2c1=O)CCCC4)CCCC3`, the TGI in [1], in assay [2], in assay [3], in assay [4], in assay [13] and in assay [5] was greater than 100 µM throughout. Further, the TGI in [6], in assay [7], in assay [8], in assay [9], in [14] and in assay [15] was greater than 100 µM in each case. Further, the TGI in assay [10] and in assay [12] was greater than 100 µM each time.

As for `CCOC(=O)c1[nH]c2ccccc2c1C(=O)C[C@H](NC(=O)C(F)(F)F)C(=O)OC`, the TGI in [1], in [2], in assay [3], in [4], in assay [5] and in assay [6] was greater than 100 µM throughout. The TGI in assay [7], in assay [16], in [8], in assay [9], in assay [14] and in assay [15] was greater than 100 µM throughout. Moreover, the TGI in assay [10], in [11] and in [12] was greater than 100 µM throughout.

With `N/N=C1/CCCc2nonc21`, the TGI in assay [1], in assay [2], in [3], in assay [4], in assay [13] and in assay [5] was greater than 100 µM throughout. Also, the TGI in assay [6], in assay [7], in assay [8], in [9], in [14] and in assay [15] was greater than 100 µM each time. The TGI in assay [10], in assay [11] and in assay [12] was greater than 100 µM throughout.

Regarding `CCN(CC)CCCNc1nc2ccccc2c2[nH]c3ccc(OC)cc3c12`, the TGI was 3.16 µM in assay [1]; 2.9 µM in assay [2]; 3.31 µM in assay [3]; 3.11 µM in [4]; greater than 10 µM in [13]; 3.2 µM in assay [5]. In addition, the TGI in [6] was 2.93 µM; in assay [7] it was 3.12 µM; in assay [8] it was 3.37 µM; in assay [9], 1.95 µM; in [14], 3.29 µM; in assay [15], 2.87 µM. Also, the TGI in [10] came to 2.59 µM; in [11], 3.02 µM; in [12], 2.64 µM.

As for `N#CC(c1cc2c(cc1Br)OCO2)N1CCOCC1` (centres undefined), the TGI in assay [2], in assay [3], in [4], in assay [13], in assay [5] and in assay [6] was greater than 100 µM in each case. For the same compound, the TGI in assay [7], in assay [8], in [9], in [14], in assay [15] and in assay [10] was greater than 100 µM throughout. Further, the TGI in assay [11] was 25.7 µM; in assay [12], greater than 100 µM.

With `OCCN(CCO)c1ccc2c(c1)Cc1ccccc1-2`, the TGI was 63.2 µM in assay [1]; greater than 100 µM in [2]; greater than 100 µM in assay [3]; greater than 100 µM in assay [4]; 57.8 µM in assay [13]; 96.7 µM in assay [5]. Besides, the TGI in assay [6] is greater than 100 µM; in assay [7], greater than 100 µM; in assay [8], greater than 100 µM; in assay [9] it was greater than 100 µM; in assay [14], greater than 100 µM; in assay [15], 60.5 µM. Moreover, the results for the TGI in assay [10], in [11] and in assay [12] were 35.7 µM, greater than 100 µM and greater than 100 µM, respectively.

With `CCCCCCCCCCCCCCCCCCOCC(CO[P+](=O)O)OCCCCCCCCCCCCCCCCCC` (centres undefined), the TGI in [1], in [2], in assay [3], in assay [4], in assay [13] and in assay [5] was greater than 50 µM each time. For the same compound, the TGI in assay [7], in assay [8], in assay [9], in assay [14], in assay [15] and in assay [10] was greater than 50 µM throughout. Moreover, the TGI in assay [11] and in assay [12] was greater than 50 µM each time.

Consider `COc1ccc([C@H]2CC(=O)NCCCCN2)cc1`, for which the TGI in [1], in assay [3], in assay [4], in assay [5], in assay [6] and in assay [7] was greater than 100 µM each time. Further, the TGI in [8], in [9], in assay [10] and in assay [12] was greater than 100 µM throughout.
